Earlier results, collected in patent US20030008014A1, “Truncated apolipoprotein B-containing lipoprotein particles for delivery of compounds to tissues or cells” (priority 2001, published 2003).

Assays:
[1] = test system: breast tumor xenografts; conditions: two 10 mg/kg injections on days 1 and 4

| solubility in phospholipid disks [mole %] | SMILES | inhibition of tumor growth [1] |
| --- | --- | --- |
| ~30 | CC(C)CCC[C@@H](C)[C@H]1CC[C@H]2[C@@H]3CC=C4C[C@@H](O)CC[C@]4(C)[C@H]3CC[C@]12C [Free cholesterol, cholesterol] |  |
|  | CC(=O)O[C@H]1C(=O)[C@@]2(C)[C@H]([C@H](OC(=O)c3ccccc3)[C@]3(O)C[C@H](OC(=O)[C@H](O)[C@@H](NC(=O)c4ccccc4)c4ccccc4)C(C)=C1C3(C)C)[C@]1(OC(C)=O)CO[C@@H]1C[C@@H]2O [paclitaxel] | maximal inhibition of tumor growth |
